≈ marks a conversion by molar mass, not a printed value.
test system: S. aureus; assay: Minimum inhibitory concentrations (MICs) for S. aureus of exemplary compounds (Table 2); assay type: cell-based; details: Staphylococcus aureus, minimum inhibitory concentrations for S. aureus; read-out: MICs
In short: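 Growth of S. aureus in media with or without compound, by broth microdilution in microtiter trays following NCCLS M7-A5 guidelines. Values are MICs in μg/mL.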

| SMILES | MIC [µg/mL] |
| --- | --- |
| CC(=O)NC[C@H]1CN(c2ccc(-c3ccc(CNCc4cn(C)c5ccccc45)cc3)c(F)c2)C(=O)O1 [Compound 4218, N-[3-(2-Fluoro-4′-{[(1-methyl-1H-indol-3-ylmethyl)-amino]-methyl}-biphenyl-4-yl)-2-oxo-oxazolidin-5-(S)-ylmethyl]-acetamide] | 2 (≈ 4 µM) |
| CC(=O)NC[C@H]1CN(c2ccc(-c3ccc(CN[C@H]4CCCNC4=O)cc3)c(F)c2)C(=O)O1 [Compound 2059, N-(3-{2-Fluoro-4′-[(2-oxo-piperidin-3-(S)-ylamino)-methyl]-biphenyl-4-yl}-2-oxo-oxazolidin-5-(S)-ylmethyl)-acetamide] | 2 (≈ 4.4 µM) |
| CC(=O)NC[C@H]1CN(c2ccc(-c3ccc(CN4CCC(C(N)=O)C4)cc3)c(F)c2)C(=O)O1 (mixture of isomers) [Compound 1093, 1-{4′-[5-(S)-(Acetylamino-methyl)-2-oxo-oxazolidin-3-yl]-2′-fluoro-biphenyl-4-ylmethyl}-pyrrolidine-3-(R/S)-carboxylic acid amide] | 2 |
| CC(=O)NC[C@H]1CN(c2ccc(-c3ccc(Cn4ccnc4C)cc3)c(F)c2)C(=O)O1 [Compound 1066, N-{3-[2-Fluoro-4′-(2-methyl-imidazol-1-ylmethyl)-biphenyl-4-yl]-2-oxo-oxazolidin-5-(S)-ylmethyl}-acetamide] | 1 (≈ 2.37 µM) |
| CC(=O)NC[C@H]1CN(c2ccc(-c3ccc(CNCc4ncon4)cc3)c(F)c2)C(=O)O1 [Compound 4233, N-[3-(2-Fluoro-4′-{[([1,2,4]oxadiazol-3-ylmethyl)-amino]-methyl}-biphenyl-4-yl)-2-oxo-oxazolidin-5-(S)-ylmethyl]-acetamide] | 0.5 (≈ 1.14 µM) |
| COc1nc(C)c(C=CC(=O)NCc2ccc(-c3ccc(N4C[C@H](CNC(C)=O)OC4=O)cc3F)cc2)c(OC)n1 [Compound 4003, N-{4′-[5-(S)-(Acetylamino-methyl)-2-oxo-oxazolidin-3-yl]-2′-fluoro-biphenyl-4-ylmethyl}-3-(2,4-dimethoxy-6-methyl-pyrimidin-5-yl)-acrylamide] | 128 (≈ 227 µM) |
| CC(=O)NC[C@H]1CN(c2ccc(-c3ccc(CNCc4cnnn4C)cc3)c(F)c2)C(=O)O1 [Compound 4272, N-[3-(2-Fluoro-4′-{[(3-methyl-3H-[1,2,3]triazol-4-ylmethyl)-amino]-methyl}-biphenyl-4-yl)-2-oxo-oxazolidin-5-(S)-ylmethyl]-acetamide] | 0.25 (≈ 0.552 µM) |
| CC(=O)NC[C@H]1CN(c2ccc(-c3ccc(Cn4ccnc4)c(F)c3)c(F)c2)C(=O)O1 [Compound 1010, N-[3-(2,3′-Difluoro-4′-imidazol-1-ylmethyl-biphenyl-4-yl)-2-oxo-oxazolidin-5-(S)-ylmethyl]-acetamide] | 1 (≈ 2.35 µM) |
| CC(=O)NC[C@H]1CN(c2ccc(-c3ccc(Cn4cc(CN(C)C)nn4)cc3)c(F)c2)C(=O)O1 [Compound 1013, N-{3-[4′-(4-Dimethylaminomethyl-[1,2,3]triazol-1-ylmethyl)-2-fluoro-biphenyl-4-yl]-2-oxo-oxazolidin-5-(S)-ylmethyl}-acetamide] | 4 (≈ 8.57 µM) |
| CC(=O)NC[C@H]1CN(c2ccc(-c3ccc(C[S+]([O-])c4ncnn4C)cc3)c(F)c2)C(=O)O1 (stereo partly drawn) [Compound 2039, N-{3-[2-Fluoro-4′-(2-methyl-2H-[1,2,4]triazole-3-sulfinylmethyl)-biphenyl-4-yl]-2-oxo-oxazolidin-5-(S)-ylmethyl}-acetamide] | 2 (≈ 4.24 µM) |
| CC(=O)NC[C@H]1CN(c2ccc(-c3ccc(CNC(=O)c4ccncc4)cc3)c(F)c2)C(=O)O1 [Compound 4142, N-{4′-[5-(S)-(Acetylamino-methyl)-2-oxo-oxazolidin-3-yl]-2′-fluoro-biphenyl-4-ylmethyl}-isonicotinamide] | 2 (≈ 4.32 µM) |
| CC(=O)NC[C@H]1CN(c2ccc(-c3ccc(CNC(=O)c4ccc5c(c4)OCO5)cc3)c(F)c2)C(=O)O1 [Compound 4014, Benzo[1,3]dioxole-5-carboxylic acid {4′-[5-(S)-(acetylamino-methyl)-2-oxo-oxazolidin-3-yl]-2′-fluoro-biphenyl-4-ylmethyl}-amide] | 4 (≈ 7.91 µM) |
| CC(=O)NC[C@H]1CN(c2ccc(-c3ccc(CNCc4nc(C)no4)cc3)c(F)c2)C(=O)O1 [Compound 4140, N-[3-(2-Fluoro-4′-{[(3-methyl-[1,2,4]oxadiazol-5-ylmethyl)-amino]-methyl}-biphenyl-4-yl)-2-oxo-oxazolidin-5-(S)-ylmethyl]-acetamide] | 2 (≈ 4.41 µM) |
| CC(=O)NC[C@H]1CN(c2ccc(-c3ccc(CNC(=O)/C=C/c4cccn(C)c4=O)cc3)c(F)c2)C(=O)O1 [Compound 4194, N-{4′-[5-(S)-(Acetylamino-methyl)-2-oxo-oxazolidin-3-yl]-2′-fluoro-biphenyl-4-ylmethyl}-3-(1-methyl-2-oxo-1,2-dihydro-pyridin-3-yl)-acrylamide] | 2 (≈ 3.86 µM) |
| CC(=O)NC[C@H]1CN(c2ccc(-c3ccc(CS(=O)(=O)Cc4ccncc4)cc3)c(F)c2)C(=O)O1 [Compound 4214, N-{3-[2-Fluoro-4′-(pyridin-4-ylmethanesulfonylmethyl)-biphenyl-4-yl]-2-oxo-oxazolidin-5-(S)-ylmethyl}-acetamide] | 1 (≈ 2.01 µM) |
| CC(=O)NC[C@H]1CN(c2ccc(-c3ccc(CN4CCSCC4)cc3)c(F)c2)C(=O)O1 [Compound 1064, N-[3-(2-Fluoro-4′-thiomorpholin-4-ylmethyl-biphenyl-4-yl)-2-oxo-oxazolidin-5-(S)-ylmethyl]-acetamide] | 2 (≈ 4.51 µM) |
| CC(=O)NC[C@H]1CN(c2ccc(-c3ccc(CNCc4ccc(-c5ccccc5)s4)cc3)c(F)c2)C(=O)O1 [Compound 4084, N-[3-(2-Fluoro-4′-{[(5-phenyl-thiophen-2-ylmethyl)-amino]-methyl}-biphenyl-4-yl)-2-oxo-oxazolidin-5-(S)-ylmethyl]-acetamide] | 128 (≈ 242 µM) |
| CC(=O)NC[C@H]1CN(c2ccc(-c3ccc(CNCCC4C=Nc5ccc(C)cc54)cc3)c(F)c2)C(=O)O1 (stereo partly drawn) [Compound 4228, N-[3-(2-Fluoro-4′-{[2-(5-methyl-3H-indol-3-yl)-ethylamino]-methyl}-biphenyl-4-yl)-2-oxo-oxazolidin-5-(S)-ylmethyl]-acetamide] | 2 (≈ 3.89 µM) |
| CC(=O)NC[C@H]1CN(c2ccc(-c3ccc(CNCc4ccc5cccnc5c4)cc3)c(F)c2)C(=O)O1 [Compound 4138, N-[3-(2-Fluoro-4′-{[(quinolin-7-ylmethyl)-amino]-methyl}-biphenyl-4-yl)-2-oxo-oxazolidin-5-(S)-ylmethyl]-acetamide] | 1 (≈ 2.01 µM) |
| CC(=O)NC[C@H]1CN(c2ccc(-c3ccc(CSc4ccncc4)cc3)c(F)c2)C(=O)O1 [Compound 2019, N-{3-[2-Fluoro-4′-(pyridin-4-ylsulfanylmethyl)-biphenyl-4-yl]-2-oxo-oxazolidin-5-(S)-ylmethyl}-acetamide] | 1 (≈ 2.21 µM) |
| CC(=O)NC[C@H]1CN(c2ccc(-c3ccc(COCc4cc[n+]([O-])cc4)cc3)c(F)c2)C(=O)O1 [Compound 4198, N-{3-[2-Fluoro-4′-(1-oxy-pyridin-4-ylmethoxymethyl)-biphenyl-4-yl]-2-oxo-oxazolidin-5-(S)-ylmethyl}-acetamide] | 2 (≈ 4.3 µM) |
| CC(=O)NC[C@H]1CN(c2ccc(-c3ccc(CNCCSc4cnn[nH]4)cc3)c(F)c2)C(=O)O1 [Compound 5001, N-[3-(2-Fluoro-4′-{[2-(3H-[1,2,3]triazol-4-ylsulfanyl)-ethylamino]-methyl}-biphenyl-4-yl)-2-oxo-oxazolidin-5-(S)-ylmethyl]-acetamide] | 1 (≈ 2.06 µM) |
| CC(=O)NC[C@H]1CN(c2ccc(-c3ccc(CNCc4cnccc4N)cc3)c(F)c2)C(=O)O1 [Compound 4135, N-[3-(4′-{[(4-Amino-pyridin-3-ylmethyl)-amino]-methyl}-2-fluoro-biphenyl-4-yl)-2-oxo-oxazolidin-5-(S)-ylmethyl]-acetamide] | 4 (≈ 8.63 µM) |
| CC(=O)NC[C@H]1CN(c2ccc(-c3ccc(CNCc4ccccn4)c(F)c3F)c(F)c2)C(=O)O1 [Compound 4090, N-[2-Oxo-3-(2,2′,3′-trifluoro-4′-{[(pyridin-2-ylmethyl)-amino]-methyl}-biphenyl-4-yl)-oxazolidin-5-(S)-ylmethyl]-acetamide] | 4 (≈ 8.26 µM) |
| CC(=O)NC[C@H]1CN(c2ccc(-c3ccc(CNCC4CC4)cc3)c(F)c2)C(=O)O1 [Compound 4300, N-(3-{4′-[(Cyclopropylmethyl-amino)-methyl]-2-fluoro-biphenyl-4-yl}-2-oxo-oxazolidin-5-(S)-ylmethyl)-acetamide] | 4 (≈ 9.72 µM) |
| COc1ncccc1CNCc1ccc(-c2ccc(N3C[C@H](CNC(C)=O)OC3=O)cc2F)cc1 [Compound 4151, N-[3-(2-Fluoro-4′-{[(2-methoxy-pyridin-3-ylmethyl)-amino]-methyl}-biphenyl-4-yl)-2-oxo-oxazolidin-5-(S)-ylmethyl]-acetamide] | 2 (≈ 4.18 µM) |
| CC(=O)NC[C@H]1CN(c2ccc(-c3ccc(C(C)NCc4nccs4)cc3)c(F)c2)C(=O)O1 (mixture of isomers) [Compound 4145, N-[3-(2-Fluoro-4′-{1-(R/S)-[(thiazol-2-ylmethyl)-amino]-ethyl}-biphenyl-4-yl)-2-oxo-oxazolidin-5-(S)-ylmethyl]-acetamide] | 2 |
| CC(=O)NC[C@H]1CN(c2ccc(-c3ccc(CNCc4c[nH]c5ccccc45)cc3)c(F)c2)C(=O)O1 [Compound 4083, N-[3-(2-Fluoro-4′-{[(1H-indol-3-ylmethyl)-amino]-methyl}-biphenyl-4-yl)-2-oxo-oxazolidin-5-(S)-ylmethyl]-acetamide] | 2 (≈ 4.11 µM) |
| CC(=O)NC[C@H]1CN(c2ccc(-c3ccc(CNCc4ccoc4)cc3)c(F)c2)C(=O)O1 [Compound 4023, N-[3-(2-Fluoro-4′-{[(furan-3-ylmethyl)-amino]-methyl}-biphenyl-4-yl)-2-oxo-oxazolidin-5-(S)-ylmethyl]-acetamide] | 1 (≈ 2.29 µM) |
| CC(=O)NC[C@H]1CN(c2ccc(-c3ccc(CN(C)Cc4ccnc5ccccc45)cc3)c(F)c2)C(=O)O1 [Compound 4032, N-(3-{2-Fluoro-4′-[(methyl-quinolin-4-ylmethyl-amino)-methyl]-biphenyl-4-yl}-2-oxo-oxazolidin-5-(S)-ylmethyl)-acetamide] | 1 (≈ 1.95 µM) |

Reference: patent US10471046B2, “Method for treating, preventing, or reducing the risk of skin infection” (Melinta Subsidiary Corp., priority 2014, dated 2019)
